# US9510598B2, “Nitrogen-containing heterocyclic compounds for plant disease control” (BAYER CROPSCIENCE AG, priority 2012, dated 2016)
# Type: physicochemical
# Settings: HPLC on reversed phase columns, method [a]: pH 2.7, 0.1% formic acid in water / acetonitrile, linear gradient 10% to 95% acetonitrile
row,log P,SMILES
1,3.44[a],C#Cc1cnc2ccc(C3=NOC(C)(C(=S)NCC4COC(C)(C)O4)C3)cc2c1 (stereo not shown) [compound 513]
2,3.37[a],C=C(C)C1(C(=O)NCCCOCC)CC(c2ccc3ncc(Br)cc3c2)=NO1 (stereo not shown) [compound 518]
3,3.17[a],C=C(C)C1(C(=O)NCc2cn(CCC)nc2C)CC(c2ccc3ncc(Br)cc3c2)=NO1 (stereo not shown) [compound 519]
4,3.61[a],C=C(C)C1(C(=O)NC2CCC2)CC(c2ccc3ncc(Br)cc3c2)=NO1 (stereo not shown) [compound 521]
5,2.91[a],C=C(C)C1(C(=O)NCc2cn(CC)nc2C)CC(c2ccc3ncc(Br)cc3c2)=NO1 (stereo not shown) [compound 526]
6,2.23[a],CC(C)NC(=O)C1(C(C)O)CC(c2ccc3ncc(Br)cc3c2)=NO1 (stereo not shown) [compound 552]
7,2.41[a],CC(O)C1(C(=O)NC2CCC2)CC(c2ccc3ncc(Br)cc3c2)=NO1 (stereo not shown) [compound 563]
8,3.06[a],C#Cc1cnc2c(C)cc(C3=NOC(C)(C(=O)NC(C)C)C3)cc2c1 (stereo not shown) [compound 571]
9,3.51[a],Cc1cc(C2=NOC(C)(C(=O)NC(C)C)C2)cc2cc(Br)cnc12 (stereo not shown) [compound 573]
10,2.62[a],COC1(C(=O)NCc2cnc(C)cn2)CC(c2cc(Cl)c3ncc(Br)cc3c2)=NO1 (stereo not shown) [compound 575]
11,3.33[a],COC1(C(=O)NC2CCC2)CC(c2cc(Cl)c3ncc(Br)cc3c2)=NO1 (stereo not shown) [compound 576]
12,3.19[a],CCOCCCNC(=O)C1(OC)CC(c2cc(Cl)c3ncc(Br)cc3c2)=NO1 (stereo not shown) [compound 577]
13,3.25[a],C#Cc1cnc2c(C)cc(C3=NOC(C)(C(=O)NC4CCC4)C3)cc2c1 (stereo not shown) [compound 578]
14,3.71[a],Cc1cc(C2=NOC(C)(C(=O)NC3CCC3)C2)cc2cc(Br)cnc12 (stereo not shown) [compound 579]
15,2.96[a],CCn1cc(CNC(=O)C2(C)CC(c3cc(C)c4ncc(Br)cc4c3)=NO2)c(C)n1 (stereo not shown) [compound 580]
16,2.62[a],C#Cc1cnc2c(C)cc(C3=NOC(C)(C(=O)NCc4cn(CC)nc4C)C3)cc2c1 (stereo not shown) [compound 581]
17,2.90[a],CCOCCCNC(=O)C1(C(C)=O)CC(c2ccc3ncc(Br)cc3c2)=NO1 (stereo not shown) [compound 582]
18,3.06[a],CC(=O)C1(C(=O)NC2CCC2)CC(c2ccc3ncc(Br)cc3c2)=NO1 (stereo not shown) [compound 583]
19,2.37[a],CC(=O)C1(C(=O)NCc2cnc(C)cn2)CC(c2ccc3ncc(Br)cc3c2)=NO1 (stereo not shown) [compound 584]
20,2.53[a],CCn1cc(CNC(=O)C2(C(C)=O)CC(c3ccc4ncc(Br)cc4c3)=NO2)c(C)n1 (stereo not shown) [compound 585]
21,2.80[a],CCCn1cc(CNC(=O)C2(C(C)=O)CC(c3ccc4ncc(Br)cc4c3)=NO2)c(C)n1 (stereo not shown) [compound 586]
22,2.53[a],C#Cc1cnc2c(Cl)cc(C3=NOC(OC)(C(=O)NCc4cn(CC)nc4C)C3)cc2c1 (stereo not shown) [compound 587]
23,2.80[a],C#Cc1cnc2c(Cl)cc(C3=NOC(OC)(C(=O)NCc4cn(CCC)nc4C)C3)cc2c1 (stereo not shown) [compound 588]
24,2.82[a],C#Cc1cnc2c(Cl)cc(C3=NOC(OC)(C(=O)NCC4COC(C)(C)O4)C3)cc2c1 (stereo not shown) [compound 589]
25,2.84[a],C#Cc1cnc2c(Cl)cc(C3=NOC(OC)(C(=O)NC(C)C)C3)cc2c1 (stereo not shown) [compound 590]
26,2.37[a],C#Cc1cnc2c(Cl)cc(C3=NOC(OC)(C(=O)NCc4cnc(C)cn4)C3)cc2c1 (stereo not shown) [compound 591]

# Same assay, conditions: method [a]: HPLC/LC-MS on reversed phase at pH 2.7, 0.1% formic acid in water / acetonitrile, gradient 10% to 95% acetonitrile
row,log P,SMILES
1,2.41[a],CCn1nc(C)c(NC(=O)C2(C)CC(c3ccc4ncc(Br)cc4c3)=NO2)c1C (stereo not shown) [compound 492]
2,2.86[a],CC1(C(=O)NC(C)(C)c2ccon2)CC(c2ccc3ncc(Br)cc3c2)=NO1 (stereo not shown) [compound 494]
3,1.71[a],CC1(C(=O)NC2=NCCO2)CC(c2ccc3ncc(Br)cc3c2)=NO1 (stereo not shown) [compound 495]
4,2.99[a],CCC1(C(=O)NCC2COC(C)(C)O2)CC(c2ccc3ncc(Br)cc3c2)=NO1 (stereo not shown) [compound 499]
5,3.04[a],CC(C)NC(=O)C1(C)CC(c2ccc3nc(C#N)c(I)cc3c2)=NO1 (stereo not shown) [compound 510]
